Counter-ions that a name gives are not always drawn. Like-named read-outs stand apart in the source and are kept apart here.
Legend:
[1] = molecular target: PI3Kδ (p110δ/p85α) Recombinant Human Protein (Homo sapiens (Human), UniProt O00329); assay: PI3Kδ Scintillation Proximity Assay; format: biochemical
Outline: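 Assay conditions: 2 μM ATP (radiolabelled), 20 μM PIP2, 3.4 nM PI3Kδ, 20 mM MOPS pH 6.7 with 10 mM MgCl2, 5 mM DTT, 0.03% CHAPS, 2 h at room temperature. Signal from bead-captured 33P product; IC50 versus solvent control.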

[2] = system: Phosphorylated Ribosomal Protein S6 (RPS6); assay: THP-1 RPS6 ELISA Assay; format: cell-based, Human; details: THP-1 cells, read-out: PI3Kγ_THP1_RPS6_ELISA IC50
Outline: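 IC50 values come from a curve of percent inhibition against log compound concentration, using phospho-RPS6 ELISA (450 nm) on THP-1 lysates. Cells were serum-starved overnight, exposed to compound for 2 h at 37 °C, then challenged 15 min with 10 nM MCP-1.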

[3] = molecular target: PI3Kγ (p110γ) Recombinant Human Protein (Homo sapiens (Human), UniProt P48736); assay: PI3K-γ Scintillation Proximity Assay; format: biochemical; details: read-out: PI3Kγ IC50
Outline: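 Radiometric SPA readout: […] bound to WGA beads after overnight shaking, IC50 derived from % activity of DMSO control. Reaction used human p110γ, 2 μM ATP, 20 μM PIP2, pH 6.7 MOPS buffer with MgCl2, DTT, CHAPS, 2% DMSO, room temperature.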

Chain of PI3Kγ (p110γ) Recombinant Human Protein (P48736 whole entry): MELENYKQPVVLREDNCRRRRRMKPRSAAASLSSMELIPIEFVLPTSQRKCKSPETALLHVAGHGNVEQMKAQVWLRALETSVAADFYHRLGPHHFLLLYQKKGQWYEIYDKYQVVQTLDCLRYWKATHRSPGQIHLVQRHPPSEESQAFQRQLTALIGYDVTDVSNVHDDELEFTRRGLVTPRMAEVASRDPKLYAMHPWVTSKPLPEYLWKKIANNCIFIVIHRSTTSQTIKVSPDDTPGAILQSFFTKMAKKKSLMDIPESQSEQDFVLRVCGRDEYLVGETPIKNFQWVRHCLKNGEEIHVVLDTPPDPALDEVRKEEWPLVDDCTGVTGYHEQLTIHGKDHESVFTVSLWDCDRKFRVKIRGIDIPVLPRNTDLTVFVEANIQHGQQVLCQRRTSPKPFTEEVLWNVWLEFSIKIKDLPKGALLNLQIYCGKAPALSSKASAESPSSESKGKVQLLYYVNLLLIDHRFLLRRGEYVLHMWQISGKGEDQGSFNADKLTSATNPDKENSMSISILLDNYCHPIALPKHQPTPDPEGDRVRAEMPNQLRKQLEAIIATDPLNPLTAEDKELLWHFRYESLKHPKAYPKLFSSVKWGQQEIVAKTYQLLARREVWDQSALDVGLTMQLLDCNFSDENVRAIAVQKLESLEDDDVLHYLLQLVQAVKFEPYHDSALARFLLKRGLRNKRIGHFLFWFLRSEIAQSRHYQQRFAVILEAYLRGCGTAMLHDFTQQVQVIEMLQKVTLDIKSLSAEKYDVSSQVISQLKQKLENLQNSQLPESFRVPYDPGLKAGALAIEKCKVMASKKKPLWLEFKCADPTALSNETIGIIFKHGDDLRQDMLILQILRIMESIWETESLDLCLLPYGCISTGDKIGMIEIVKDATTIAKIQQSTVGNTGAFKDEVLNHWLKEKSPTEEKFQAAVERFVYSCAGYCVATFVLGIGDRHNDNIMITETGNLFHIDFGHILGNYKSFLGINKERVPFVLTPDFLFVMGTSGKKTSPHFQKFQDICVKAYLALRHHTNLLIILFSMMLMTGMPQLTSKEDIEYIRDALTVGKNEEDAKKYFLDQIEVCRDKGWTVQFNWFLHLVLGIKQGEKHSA
Chain of PI3Kδ (p110δ/p85α) Recombinant Human Protein (O00329 whole entry): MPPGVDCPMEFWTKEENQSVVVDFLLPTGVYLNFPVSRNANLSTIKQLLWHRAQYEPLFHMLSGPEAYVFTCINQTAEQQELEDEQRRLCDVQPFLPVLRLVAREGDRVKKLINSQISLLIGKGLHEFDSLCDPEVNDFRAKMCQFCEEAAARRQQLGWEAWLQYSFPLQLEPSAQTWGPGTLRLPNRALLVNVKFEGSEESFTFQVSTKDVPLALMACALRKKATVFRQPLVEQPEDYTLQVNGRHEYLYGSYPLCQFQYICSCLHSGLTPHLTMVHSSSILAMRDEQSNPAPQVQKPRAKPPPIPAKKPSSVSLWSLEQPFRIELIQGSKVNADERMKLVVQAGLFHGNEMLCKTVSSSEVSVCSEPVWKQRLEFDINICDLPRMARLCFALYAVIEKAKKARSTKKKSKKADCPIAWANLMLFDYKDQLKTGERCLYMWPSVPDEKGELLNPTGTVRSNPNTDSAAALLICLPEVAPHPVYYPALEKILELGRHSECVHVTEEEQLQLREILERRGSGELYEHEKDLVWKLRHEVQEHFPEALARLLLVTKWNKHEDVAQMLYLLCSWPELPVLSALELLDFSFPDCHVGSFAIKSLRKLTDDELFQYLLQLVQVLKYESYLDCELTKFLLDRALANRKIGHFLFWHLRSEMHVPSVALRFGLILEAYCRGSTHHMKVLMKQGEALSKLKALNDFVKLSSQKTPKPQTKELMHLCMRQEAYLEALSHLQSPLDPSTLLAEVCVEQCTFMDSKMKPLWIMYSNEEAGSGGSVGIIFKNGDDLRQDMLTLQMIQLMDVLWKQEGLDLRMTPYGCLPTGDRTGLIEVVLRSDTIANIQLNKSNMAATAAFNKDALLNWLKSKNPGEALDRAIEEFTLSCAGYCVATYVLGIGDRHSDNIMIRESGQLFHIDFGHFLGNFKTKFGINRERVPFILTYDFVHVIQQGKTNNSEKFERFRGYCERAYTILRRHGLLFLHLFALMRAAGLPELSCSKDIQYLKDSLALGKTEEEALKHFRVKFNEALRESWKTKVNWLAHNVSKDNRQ
Chain of PI3Kδ (p110δ/p85α) Recombinant Human Protein (P27986 whole entry partner): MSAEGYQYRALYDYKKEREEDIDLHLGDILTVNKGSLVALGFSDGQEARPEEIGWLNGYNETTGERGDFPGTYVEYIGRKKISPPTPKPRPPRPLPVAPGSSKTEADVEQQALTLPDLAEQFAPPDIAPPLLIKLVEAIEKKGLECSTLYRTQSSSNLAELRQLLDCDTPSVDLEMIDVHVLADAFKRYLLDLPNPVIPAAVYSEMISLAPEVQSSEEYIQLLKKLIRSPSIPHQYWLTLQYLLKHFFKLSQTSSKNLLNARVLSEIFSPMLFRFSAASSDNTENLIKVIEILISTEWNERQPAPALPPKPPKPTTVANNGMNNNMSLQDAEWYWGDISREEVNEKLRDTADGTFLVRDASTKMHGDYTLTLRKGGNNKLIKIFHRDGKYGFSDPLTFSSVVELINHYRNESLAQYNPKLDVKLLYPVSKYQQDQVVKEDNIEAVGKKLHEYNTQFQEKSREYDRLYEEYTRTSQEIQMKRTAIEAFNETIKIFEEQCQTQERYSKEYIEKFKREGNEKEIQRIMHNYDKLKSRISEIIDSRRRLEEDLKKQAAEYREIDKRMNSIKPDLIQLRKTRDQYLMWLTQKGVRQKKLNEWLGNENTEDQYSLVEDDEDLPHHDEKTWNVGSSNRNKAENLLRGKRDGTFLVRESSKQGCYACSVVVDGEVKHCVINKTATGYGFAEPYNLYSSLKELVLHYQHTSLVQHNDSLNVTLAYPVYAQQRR

SMILES | IC50 [1] [nM] | IC50 ([2]; Homo sapiens) [nM] | IC50 [3] [nM] | IC50 [2] [nM]
[2H]C([2H])([2H])c1ccc(S(=O)(=O)NC23CCC(O)(C2)C3)cc1-c1cnc2c(N)ncnn12 [Example 374, 3-(4-Aminoimidazo[2,1-f][1,2,4]triazin-7-yl)-N-(4-hydroxybicyclo[2.1.1]hexan-1-yl)-4-(methyl-d3)benzenesulfonamide] | 500 to 2000 | 500 to 1000 | < 100 | –
Cc1c(F)cc(S(=O)(=O)NC23CCC(CO)(CC2)OC3)cc1-c1cnc2c(N)ncnn12 [Example 375, 3-(4-aminoimidazo[1,2-f][1,2,4]triazin-7-yl)-5-fluoro-N-(1-(hydroxymethyl)-2-oxabicyclo[2.2.2]octan-4-yl)-4-methylbenzenesulfonamide trifluoroacetate salt] | 100 to 500 | – | < 100 | < 100
C[C@]1(O)CC[C@H](NS(=O)(=O)c2cc(-c3cnc4c(N)ncnn34)ccc2F)CC1 [Example 376, 5-(4-aminoimidazo[2,1-f][1,2,4]triazin-7-yl)-2-fluoro-N-((1r,4r)-4-hydroxy-4-methylcyclohexyl)benzenesulfonamide] | 100 to 500 | – | < 100 | > 1000
C[C@]1(O)CC[C@H](NS(=O)(=O)c2cc(-c3cnc4c(N)ncnn34)ccc2Cl)CC1 [Example 377, 5-(4-aminoimidazo[2,1-f][1,2,4]triazin-7-yl)-2-chloro-N-((1r,4r)-4-hydroxy-4-methylcyclohexyl)benzenesulfonamide] | < 100 | – | < 100 | < 100
[2H]C([2H])([2H])c1ccc(S(=O)(=O)NC23CC(CC#N)(C2)C3)cc1-c1cnc2c(N)nc(C)cn12 [Example 378, trifluoroacetate salt] | 100 to 500 | < 100 | < 100 | –
O=C(O)C(F)(F)F.[2H]C([2H])([2H])c1ccc(S(=O)(=O)NC23CCC(C#N)(C2)C3)cc1-c1cnc2c(N)nc(C)cn12 [Example 379, 3-(8-Amino-6-methylimidazo[1,2-a]pyrazin-3-yl)-N-(4-cyanobicyclo[2.1.1]hexan-1-yl)-4-(methyl-d3)benzenesulfonamide trifluoroacetate salt] | 100 to 500 | < 100 | < 100 | –
Cc1cn2c(-c3ccc(F)c(S(=O)(=O)NC45CCC(C#N)(C4)C5)c3)cnc2c(N)n1 [Example 380, 5-(8-Amino-6-methylimidazo[1,2-a]pyrazin-3-yl)-N-(4-cyanobicyclo[2.1.1]hexan-1-yl)-2-fluorobenzenesulfonamide trifluoroacetate salt] | 500 to 2000 | > 1000 | < 100 | –
Cc1cn2c(-c3cccc(S(=O)(=O)NC45CCC(CO)(C4)C5)c3)cnc2c(N)n1 [Example 381, 3-(8-Amino-6-methylimidazo[1,2-a]pyrazin-3-yl)-N-(4-(hydroxymethyl)bicyclo[2.1.1]hexan-1-yl)benzenesulfonamide] | 100 to 500 | 100 to 500 | < 100 | –
O=C(O)C(F)(F)F.[2H]C([2H])([2H])c1ccc(S(=O)(=O)NC23CCC(CO)(C2)C3)cc1-c1cnc2c(N)nc(C)cn12 [Example 383, 3-(8-Amino-6-methylimidazo[1,2-a]pyrazin-3-yl)-N-(4-(hydroxymethyl)bicyclo[2.1.1]hexan-1-yl)-4-(methyl-d3)benzenesulfonamide trifluoroacetate salt] | < 100 | < 100 | < 100 | –
[2H]C([2H])([2H])c1ccc(S(=O)(=O)NC23CCC(O)(C2)C3)cc1-c1cnc2c(N)nc(C)cn12 [Example 384, 3-(8-Amino-6-methylimidazo[1,2-a]pyrazin-3-yl)-N-(4-hydroxybicyclo[2.1.1]hexan-1-yl)-4-(methyl-d3)benzenesulfonamide] | < 100 | 500 to 1000 | < 100 | –
Cc1cn2c(-c3ccc(Cl)c(S(=O)(=O)N[C@H]4CC[C@](C)(O)CC4)c3)cnc2c(N)n1 [Example 385, 5-(8-amino-6-methylimidazo[1,2-a]pyrazin-3-yl)-2-chloro-N-((1r,4r)-4-hydroxy-4-methylcyclohexyl)benzenesulfonamide] | < 100 | – | < 100 | 100 to 500
O=C(O)C(F)(F)F.[2H]C([2H])([2H])c1ccc(S(=O)(=O)NC23CCC(C#N)(C2)C3)cc1-c1cnc2c(N)nc(C)nn12 [Example 386, 3-(4-Amino-2-methylimidazo[2,1-f][1,2,4]triazin-7-yl)-N-(4-cyanobicyclo[2.1.1]hexan-1-yl)-4-(methyl-d3)benzenesulfonamide trifluoroacetate salt] | 100 to 500 | < 100 | < 100 | –
Cc1nc(N)c2ncc(-c3ccc(F)c(S(=O)(=O)NC45CCC(C#N)(C4)C5)c3)n2n1 [Example 387, 5-(4-Amino-2-methylimidazo[1,2-f][1,2,4]triazin-7-yl)-N-(4-cyanobicyclo[2.1.1]hexan-1-yl)-2-fluorobenzenesulfonamide trifluoroacetate salt] | 100 to 500 | – | < 100 | < 100
Cc1nc(N)c2ncc(-c3ccc(F)c(S(=O)(=O)NC45CC(C#N)(C4)C5)c3)n2n1 [Example 388, 5-(4-Amino-2-methylimidazo[1,2-f][1,2,4]triazin-7-yl)-N-(3-cyanobicyclo[1.1.1]pentan-1-yl)-2-fluorobenzenesulfonamide trifluoroacetate salt] | 100 to 500 | – | < 100 | > 1000
Cc1nc(N)c2ncc(-c3cc(S(=O)(=O)N[C@H]4CC[C@H](CC#N)OC4)c(Cl)cc3C)n2n1 [Example 389, 5-(4-amino-2-methylimidazo[2,1-f][1,2,4]triazin-7-yl)-2-chloro-N-((3S,6R)-6-(cyanomethyl)tetrahydro-2H-pyran-3-yl)-4-methylbenzenesulfonamide] | < 100 | < 100 | < 100 | –
O=C(O)C(F)(F)F.[2H]C([2H])([2H])c1ccc(S(=O)(=O)NC23CCC(CO)(C2)C3)cc1-c1cnc2c(N)nc(C(F)(F)F)cn12 [Example 390, 3-(8-Amino-6-(trifluoromethyl)imidazo[1,2-a]pyrazin-3-yl)-N-(4-(hydroxymethyl)bicyclo[2.1.1]hexan-1-yl)-4-(methyl-d3)benzenesulfonamide trifluoroacetate salt] | 100 to 500 | 100 to 500 | < 100 | –
O=C(O)C(F)(F)F.[2H]C([2H])([2H])c1ccc(S(=O)(=O)NC23CC(CO)(C2)C3)cc1-c1cnc2c(N)nc(C(F)(F)F)cn12 [Example 391, 3-(8-Amino-6-(trifluoromethyl)imidazo[1,2-a]pyrazin-3-yl)-N-(3-(hydroxymethyl)bicyclo[1.1.1]pentan-1-yl)-4-(methyl-d3)benzenesulfonamide trifluoroacetate salt] | 100 to 500 | < 100 | < 100 | –
N#CC12CCC(NS(=O)(=O)c3cc(-c4cnc5c(N)nc(C(F)(F)F)cn45)ccc3Cl)(C1)C2 [Example 392, 5-(8-Amino-6-(trifluoromethyl)imidazo[1,2-a]pyrazin-3-yl)-2-chloro-N-(4-cyanobicyclo[2.1.1]hexan-1-yl)benzenesulfonamide trifluoroacetate salt] | < 100 | 100 to 500 | < 100 | –
Nc1nc(C(F)(F)F)cn2c(-c3cc(S(=O)(=O)NC45CCC(CO)(C4)C5)ccc3Cl)cnc12 [Example 393, 3-(8-Amino-6-(trifluoromethyl)imidazo[1,2-a]pyrazin-3-yl)-4-chloro-N-(4-(hydroxymethyl)bicyclo[2.1.1]hexan-1-yl)benzenesulfonamide] | 500 to 2000 | 100 to 500 | < 100 | –
Nc1nc(C(F)(F)F)cn2c(-c3cccc(S(=O)(=O)NC45CCC(CO)(C4)C5)c3)cnc12 [Example 394, 3-(8-Amino-6-(trifluoromethyl)imidazo[1,2-a]pyrazin-3-yl)-N-(4-(hydroxymethyl)bicyclo[2.1.1]hexan-1-yl)benzenesulfonamide trifluoroacetate salt] | 100 to 500 | 100 to 500 | < 100 | –
N#CC12CCC(NS(=O)(=O)c3cccc(-c4cnc5c(N)nc(C(F)(F)F)cn45)c3)(C1)C2 [Example 395, 3-(8-Amino-6-(trifluoromethyl)imidazo[1,2-a]pyrazin-3-yl)-N-(4-cyanobicyclo[2.1.1]hexan-1-yl)benzenesulfonamide trifluoroacetate salt] | 100 to 500 | 100 to 500 | < 100 | –
N#CC12CCC(NS(=O)(=O)c3cc(-c4cnc5c(N)nc(C(F)(F)F)cn45)ccc3F)(C1)C2 [Example 396, 5-(8-Amino-6-(trifluoromethyl)imidazo[1,2-a]pyrazin-3-yl)-N-(4-cyanobicyclo[2.1.1]hexan-1-yl)-2-fluorobenzenesulfonamide trifluoroacetate salt] | 100 to 500 | 500 to 1000 | < 100 | –
Cc1c(F)cc(S(=O)(=O)NC23CCC(C#N)(C2)C3)cc1-c1cnc2c(N)nc(C(F)(F)F)cn12 [Example 397, 3-(8-Amino-6-(trifluoromethyl)imidazo[1,2-a]pyrazin-3-yl)-N-(4-cyanobicyclo[2.1.1]hexan-1-yl)-5-fluoro-4-methylbenzenesulfonamide trifluoroacetate salt] | 100 to 500 | < 100 | < 100 | –
